Source: PubChem BioAssay AID2060352 (Molecular Pharmacology Branch, DTP, NCI, 2025)
pIC50: −log10 of the molar value.

Tested on: 616215-338-R-J1-PDC spheroid with HUVEC/MSC, viability
Assay: Anticancer human tumor 616215-338-R-J1-PDC patient-derived colon adenocarcinoma cell line growth inhibition [TAK]
Details: for pIC50: curve of first compound; for viability, T/C: stronger effect = lower value
In short: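 Drug combinations, each paired with TAK-243 or ipatasertib, were tested on multi-cell spheroids of 60% malignant cells, 25% HUVEC and 15% hMSC. Top concentrations were at or near the clinical Cmax (10 microM if undetermined), decreasing by half-log; viability is given as % test/control.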

[1] = second compound 0.3 µM, first compound 0.000316 µM
[2] = second compound 0.3 µM, first compound 0.001 µM
[3] = second compound 0.3 µM, first compound 0.00316 µM
[4] = second compound 0.3 µM, first compound 0.01 µM
[5] = second compound 0.3 µM, first compound 0.0316 µM
[6] = second compound 0.3 µM, first compound 0.1 µM
[7] = second compound 0.949 µM, first compound 0.000316 µM
[8] = second compound 0.949 µM, first compound 0.001 µM
[9] = second compound 0.949 µM, first compound 0.00316 µM
[10] = second compound 0.949 µM, first compound 0.01 µM
[11] = second compound 0.949 µM, first compound 0.0316 µM
[12] = second compound 0.949 µM, first compound 0.1 µM
[13] = second compound 3 µM, first compound 0.000316 µM
[14] = second compound 3 µM, first compound 0.001 µM
[15] = second compound 3 µM, first compound 0.00316 µM
[16] = second compound 3 µM, first compound 0.01 µM
[17] = second compound 3 µM, first compound 0.0316 µM
[18] = second compound 3 µM, first compound 0.1 µM
[19] = second compound 9.49 µM, first compound 0.000316 µM
[20] = second compound 9.49 µM, first compound 0.001 µM
[21] = second compound 9.49 µM, first compound 0.00316 µM
[22] = second compound 9.49 µM, first compound 0.01 µM
[23] = second compound 9.49 µM, first compound 0.0316 µM
[24] = second compound 9.49 µM, first compound 0.1 µM
[25] = second compound 30 µM, first compound 0.000316 µM
[26] = second compound 30 µM, first compound 0.001 µM
[27] = second compound 30 µM, first compound 0.00316 µM
[28] = second compound 30 µM, first compound 0.01 µM
[29] = second compound 30 µM, first compound 0.0316 µM
[30] = second compound 30 µM, first compound 0.1 µM
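Further: spheroids exposed to drugs for 7 days before readout.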

Compound	pIC50 (second compound 0.3 µM)	pIC50 (second compound 0.949 µM)	pIC50 (second compound 3 µM)	pIC50 (second compound 9.49 µM)	pIC50 (second compound 30 µM)	viability, T/C [3] [%]	viability, T/C [4] [%]	viability, T/C [5] [%]	viability, T/C [6] [%]	viability, T/C [9] [%]	viability, T/C [10] [%]	viability, T/C [11] [%]	viability, T/C [12] [%]	viability, T/C [15] [%]	viability, T/C [16] [%]	viability, T/C [17] [%]	viability, T/C [18] [%]	viability, T/C [21] [%]	viability, T/C [22] [%]	viability, T/C [23] [%]	other results
CC(C)CC(NC(=O)CNC(=O)c1cc(Cl)ccc1Cl)B1OC(=O)CC(CC(=O)O)(C(=O)O)O1 (stereo not given) + CC(C)NCC(C(=O)N1CCN(c2ncnc3c2C(C)CC3O)CC1)c1ccc(Cl)cc1	7.68	7.68	7.85	> 9.50	> 9.50	122	105	19.7	0.11	132	129	4.16	0.13	57.7	76.5	3.6	0.77	23.6	23.7	1.97	viability, T/C [1]: 115%; viability, T/C [2]: 123%; viability, T/C [7]: 134%; viability, T/C [8]: 136%; viability, T/C [13]: 78.8%; viability, T/C [14]: 68.6%; viability, T/C [19]: 23.4%; viability, T/C [20]: 21.8%; viability, T/C [24]: 0.97%; viability, T/C [25]: 11.2%; viability, T/C [26]: 9.33%; viability, T/C [27]: 10.7%; viability, T/C [28]: 8.93%; viability, T/C [29]: 2.11%; viability, T/C [30]: 0.25%
COc1c(OCCCN2CCOCC2)ccc2c3n(c(=NC(=O)c4cnc(N)nc4)nc12)CCN3 + CC(C)NCC(C(=O)N1CCN(c2ncnc3c2C(C)CC3O)CC1)c1ccc(Cl)cc1	7.00	7.14	8.03	> 8.50	> 8.50	101	113	110	49.7	113	117	83.3	37.4	64.3	49.7	33.9	26.4	23.5	31.1	20.9	viability, T/C (second compound 0.3 µM, first compound 0.316 µM): 27.2%; viability, T/C (second compound 0.3 µM, first compound 1 µM): 17.6%; viability, T/C (second compound 0.949 µM, first compound 0.316 µM): 24.4%; viability, T/C (second compound 0.949 µM, first compound 1 µM): 15.8%; viability, T/C (second compound 3 µM, first compound 0.316 µM): 19.1%; viability, T/C (second compound 3 µM, first compound 1 µM): 15.6%; viability, T/C [24]: 14.4%; viability, T/C (second compound 9.49 µM, first compound 0.316 µM): 12.7%; viability, T/C (second compound 9.49 µM, first compound 1 µM): 14.9%; viability, T/C [27]: 11.7%; viability, T/C [28]: 12.8%; viability, T/C [29]: 9.99%; viability, T/C [30]: 9.6%; viability, T/C (second compound 30 µM, first compound 0.316 µM): 8.41%; viability, T/C (second compound 30 µM, first compound 1 µM): 7.42%
COC1CC2CCC(C)C(O)(O2)C(=O)C(=O)N2CCCCC2C(=O)OC(C(C)CC2CCC(OCCO)C(OC)C2)CC(=O)C(C)C=C(C)C(O)C(OC)C(=O)C(C)CC(C)C=CC=CC=C1C (stereo not given) + CC(C)NCC(C(=O)N1CCN(c2ncnc3c2C(C)CC3O)CC1)c1ccc(Cl)cc1	< 7.00	< 7.00	8.64	> 9.50	> 9.50	137	129	130	104	111	97.1	82.5	80.3	45.6	38.3	35.8	32.1	17.2	16.2	15.8	viability, T/C [1]: 133%; viability, T/C [2]: 119%; viability, T/C [7]: 119%; viability, T/C [8]: 125%; viability, T/C [13]: 61.5%; viability, T/C [14]: 59.3%; viability, T/C [19]: 23.1%; viability, T/C [20]: 20%; viability, T/C [24]: 14.9%; viability, T/C [25]: 9.82%; viability, T/C [26]: 9.86%; viability, T/C [27]: 10.5%; viability, T/C [28]: 9.81%; viability, T/C [29]: 8.34%; viability, T/C [30]: 7.96%
